Read-outs that look alike come from different tables or passages of the source.
What was measured:
Test in all cases: Cellular cytotoxicity of compounds of Formula I, Example 3.1
Type in all cases: cell-based
[1] = tested on: Human T-cell leukemia cell line Jurkat; conditions: Homo sapiens, Jurkat, read-out: EC50 (nM) Jurkat
Procedure: (§1) Compounds were tested on one or more of Human T-cell leukemia cell line Jurkat (ATCC: TIB-152); Human breast cancer cell lines HCC1954 (ATCC: CRL-2338) and JIMT-1 (DSMZ: ACC 589); Human Pancreatic cell line BxPC-3 (ATCC: CRL.1687), Human ovarian adenocarcinoma cell line SK-OV-3 (ATCC: HTB-77) and Human gastric carcinoma cell line NCI-N87 (ATCC: CRL. 5822); to assess their cytotoxicity.
(§2) Briefly, cells were obtained from commercial sources and cultured as described in the product sheet provided. Cells were removed from their culture vessels and the resulting cell suspension was counted using a ViCell (Beckman Coulter), then seeded at 25,000 cells/mL (2,500 cells/well) in Costar 3904 black walled, flat bottomed 96-well plates (cells were seeded in the inner 60 wells of 96-well TC plates, and outer edge wells filled with water). Adherent cell lines were incubated for one night at 37° C./5% CO2 atmosphere to allow the cells to attach to the microtiter plate surface, while suspension (Jurkat) cells were plated immediately before use. Cytotoxins were dissolved and serially diluted in dimethyl sulfoxide and then the solutions were added to complete growth medium at five-times the desired maximum final concentration. The cytotoxins were then titrated in growth medium, normally 1:3, over eight steps. A control with no test article present (growth medium alone) was included on each microtiter plate in sextuplicate. The prepared toxin titrations were added (25 μL/well) in triplicate to each cell line assayed. The cells and titrations were incubated at 37° C./5% CO2 for three nights (Jurkat) and five nights (all other cell lines). After the incubation, cell viability was measured using CellTiter-Glo® by adding 30 μL of prepared CellTiter-Glo® reagent to each assay well. The mixtures were incubated for at least twenty minutes in the dark prior to measuring emitted luminescence using a microplate luminometer (500 ms integration time). The collected relative luminescence units (RLU) were converted to % cytotoxicity using the growth medium alone control mentioned above (% Cytotoxicity=1-[well RLU/average medium alone control RLU]×100%).

[2] = tested on: Human gastric carcinoma cell line NCI-N87; conditions: five nights, CellTiter-Glo
Procedure: as §1, §2

[3] = tested on: Human Pancreatic cell line BxPC-3; conditions: five nights, CellTiter-Glo
Procedure: as §1, §2

## CC[C@H](C)[C@@H]([C@@H](CC(=O)N1CCC[C@H]1[C@H](OC)[C@@H](C)C(=O)NS(=O)(=O)c1ccc(C2(NC(=O)C(F)(F)F)CC2)cc1)OC)N(C)C(=O)[C@@H](NC(=O)[C@H](C(C)C)N(C)C)C(C)C [Compound 29, (S)-2-((S)-2-(Dimethylamino)-3-methylbutanamido)-N-((3R,4S,5S)-3-methoxy-1-((S)-2-((1R,2R)-1-methoxy-2-methyl-3-oxo-3-(4-(1-(2,2,2-trifluoroacetamido)cyclopropyl)phenylsulfonamido)propyl)pyrrolidin-1-yl)-5-methyl-1-oxoheptan-4-yl)-N,3-dimethylbutanamide]
[1]; three nights, CellTiter-Glo
  EC50: 22.1 nM

## CC[C@H](C)[C@@H]([C@@H](CC(=O)N1CCC[C@H]1[C@H](OC)[C@@H](C)C(=O)N[C@@H](Cc1ccccc1)C(=O)NS(=O)(=O)c1ccc(C2(N)CC2)cc1)OC)N(C)C(=O)[C@@H](NC(=O)[C@H](C(C)C)N(C)C)C(C)C [Compound 32, (S)-N-((3R,4S,5S)-1-((S)-2-((1R,2R)-3-((S)-1-(4-(1-Aminocyclopropyl)phenylsulfonamido)-1-oxo-3-phenylpropan-2-ylamino)-1-methoxy-2-methyl-3-oxopropyl)pyrrolidin-1-yl)-3-methoxy-5-methyl-1-oxoheptan-4-yl)-2-((S)-2-(dimethylamino)-3-methylbutanamido)-N,3-dimethylbutanamide]
[1]; three nights, CellTiter-Glo
  EC50: > 100 nM

## CC[C@H](C)[C@@H]([C@@H](CC(=O)N1CCC[C@H]1[C@H](OC)[C@@H](C)C(=O)NS(=O)(=O)c1ccc(C(=O)OC)cc1)OC)N(C)C(=O)[C@@H](NC(=O)[C@H](C(C)C)N(C)C)C(C)C [Compound 34, Methyl 4-(N-((2R,3R)-3-((S)-1-((3R,4S,5S)-4-((S)-2-((S)-2-(Dimethylamino)-3-methylbutanamido)-N,3-dimethylbutanamido)-3-methoxy-5-methylheptanoyl)pyrrolidin-2-yl)-3-methoxy-2-methylpropanoyl)sulfamoyl)benzoate]
[2]
  EC50: > 300 nM
[1]; three nights, CellTiter-Glo
  EC50: > 100 nM
[3]
  EC50: > 300 nM

## CC[C@H](C)[C@@H]([C@@H](CC(=O)N1CCC[C@H]1[C@H](OC)[C@@H](C)C(=O)N[C@@H](Cc1ccccc1)C(=O)NS(=O)(=O)Cc1ccc(CNC(=O)C(F)(F)F)cc1)OC)N(C)C(=O)[C@@H](NC(=O)[C@H](C(C)C)N(C)C)C(C)C [Compound 27, (S)-2-((S)-2-(Dimethylamino)-3-methylbutanamido)-N-((3R,4S,5S)-3-methoxy-1-((S)-2-((1R,2R)-1-methoxy-2-methyl-3-oxo-3-(((S)-1-oxo-3-phenyl-1-(((4-((2,2,2-trifluoroacetamido)methyl)phenyl)methyl)sulfonamido)propan-2-yl)amino)propyl)pyrrolidin-1-yl)-5-methyl-1-oxoheptan-4-yl)-N,3-dimethylbutanamide]
[2]
  EC50: 17.4 nM
[1]
  EC50: 24.2 nM
[3]
  EC50: 19 nM

## CC[C@H](C)[C@@H]([C@@H](CC(=O)N1CCC[C@H]1[C@H](OC)[C@@H](C)C(=O)NS(=O)(=O)Cc1ccc(CNC(=O)C(F)(F)F)cc1)OC)N(C)C(=O)[C@@H](NC(=O)[C@H](C(C)C)N(C)C)C(C)C [Compound 25, (S)-2-((S)-2-(Dimethylamino)-3-methylbutanamido)-N-((3R,4S,5S)-3-methoxy-1-((S)-2-((1R,2R)-1-methoxy-2-methyl-3-oxo-3-(((4-((2,2,2-trifluoroacetamido)methyl)phenyl)methyl)sulfonamido)propyl)pyrrolidin-1-yl)-5-methyl-1-oxoheptan-4-yl)-N,3-dimethylbutanamide]
[2]
  EC50: > 100 nM
[1]; three nights, CellTiter-Glo
  EC50: 34.3 nM
[3]
  EC50: > 100 nM

## CC[C@H](C)[C@@H]([C@@H](CC(=O)N1CCC[C@H]1[C@H](OC)[C@@H](C)C(=O)N[C@@H](Cc1ccccc1)C(=O)NS(=O)(=O)Cc1ccc(CN)cc1)OC)N(C)C(=O)[C@@H](NC(=O)[C@H](C(C)C)N(C)C)C(C)C [Compound 28, (S)-N-((3R,4S,5S)-1-((S)-2-((1R,2R)-3-(((S)-1-(((4-(Aminomethyl)phenyl)methyl)sulfonamido)-1-oxo-3-phenylpropan-2-yl)amino)-1-methoxy-2-methyl-3-oxopropyl)pyrrolidin-1-yl)-3-methoxy-5-methyl-1-oxoheptan-4-yl)-2-((S)-2-(dimethylamino)-3-methylbutanamido)-N,3-dimethylbutanamide]
[2]
  EC50: > 100 nM
[1]; three nights, CellTiter-Glo
  EC50: ~100 nM
[3]
  EC50: > 100 nM

## CC[C@H](C)[C@@H]([C@@H](CC(=O)N1CCC[C@H]1[C@H](OC)[C@@H](C)C(=O)NS(=O)(=O)c1ccc(N)cc1)OC)N(C)C(=O)[C@@H](NC(=O)C(C)(C)N)C(C)C [Compound 17, (S)-2-(2-Amino-2-methylpropanamido)-N-((3R,4S,5S)-1-((S)-2-((1R,2R)-3-((4-aminophenyl)sulfonamido)-1-methoxy-2-methyl-3-oxopropyl)pyrrolidin-1-yl)-3-methoxy-5-methyl-1-oxoheptan-4-yl)-N,3-dimethylbutanamide]
[2]
  EC50: > 100 nM
[1]; three nights, CellTiter-Glo
  EC50: 30.5 nM
[3]
  EC50: > 100 nM

## CC[C@H](C)[C@@H]([C@@H](CC(=O)N1CCC[C@H]1[C@H](OC)[C@@H](C)C(=O)NS(=O)(=O)c1ccc(N)cc1)OC)N(C)C(=O)[C@@H](NC(=O)[C@@H](NC)C(C)(C)c1ccccc1)C(C)C [Compound 19, (S)-N-((3R,4S,5S)-1-((S)-2-((1R,2R)-3-((4-Aminophenyl)sulfonamido)-1-methoxy-2-methyl-3-oxopropyl)pyrrolidin-1-yl)-3-methoxy-5-methyl-1-oxoheptan-4-yl)-N,3-dimethyl-2-((S)-3-methyl-2-(methylamino)-3-phenylbutanamido)butanamide]
[2]
  EC50: 12.8 nM
[1]; three nights, CellTiter-Glo
  EC50: 2.2 nM
[3]
  EC50: 10.2 nM

## CC[C@H](C)[C@@H]([C@@H](CC(=O)N1CCC[C@H]1[C@H](OC)[C@@H](C)C(=O)NS(=O)(=O)c1ccc(N)cc1)OC)N(C)C(=O)[C@@H](NC(=O)[C@@H](NC)C(C)C)C(C)C [Compound 20, (S)-N-((3R,4S,5S)-1-((S)-2-((1R,2R)-3-((4-Aminophenyl)sulfonamido)-1-methoxy-2-methyl-3-oxopropyl)pyrrolidin-1-yl)-3-methoxy-5-methyl-1-oxoheptan-4-yl)-N,3-dimethyl-2-((S)-3-methyl-2-(methylamino)butanamido)butanamide]
[2]
  EC50: > 300 nM
[1]; three nights, CellTiter-Glo
  EC50: > 100 nM
[3]
  EC50: > 300 nM

## CC[C@H](C)[C@@H]([C@@H](CC(=O)N1CCC[C@H]1[C@H](OC)[C@@H](C)C(=O)N[C@@H](Cc1ccccc1)C(=O)NS(=O)(=O)c1ccc(CN)cc1)OC)N(C)C(=O)[C@@H](NC(=O)[C@H](C(C)C)N(C)C)C(C)C [Compound 24, (S)-N-((3R,4S,5S)-1-((S)-2-((1R,2R)-3-(((S)-1-((4-(Aminomethyl)phenyl)sulfonamido)-1-oxo-3-phenylpropan-2-yl)amino)-1-methoxy-2-methyl-3-oxopropyl)pyrrolidin-1-yl)-3-methoxy-5-methyl-1-oxoheptan-4-yl)-2-((S)-2-(dimethylamino)-3-methylbutanamido)-N,3-dimethylbutanamide]
[2]
  EC50: > 100 nM
[1]; three nights, CellTiter-Glo
  EC50: ~100 nM
[3]
  EC50: > 100 nM

## CC[C@H](C)[C@@H]([C@@H](CC(=O)N1CCC[C@H]1[C@H](OC)[C@@H](C)C(=O)NS(=O)(=O)c1ccc(C2(N)CC2)cc1)OC)N(C)C(=O)[C@@H](NC(=O)[C@H](C(C)C)N(C)C)C(C)C [Compound 30, (S)-N-((3R,4S,5S)-1-((S)-2-((1R,2R)-3-(4-(1-Aminocyclopropyl)phenylsulfonamido)-1-methoxy-2-methyl-3-oxopropyl)pyrrolidin-1-yl)-3-methoxy-5-methyl-1-oxoheptan-4-yl)-2-((S)-2-(dimethylamino)-3-methylbutanamido)-N,3-dimethylbutanamide]
[1]; three nights, CellTiter-Glo
  EC50: > 100 nM

## CC[C@H](C)[C@@H]([C@@H](CC(=O)N1CCC[C@H]1[C@H](OC)[C@@H](C)C(=O)N[C@@H](Cc1ccccc1)C(=O)NS(=O)(=O)c1ccc(C2(NC(=O)C(F)(F)F)CC2)cc1)OC)N(C)C(=O)[C@@H](NC(=O)[C@H](C(C)C)N(C)C)C(C)C [Compound 31, (S)-2-((S)-2-(Dimethylamino)-3-methylbutanamido)-N-((3R,4S,5S)-3-methoxy-1-((S)-2-((1R,2R)-1-methoxy-2-methyl-3-oxo-3-((S)-1-oxo-3-phenyl-1-(4-(1-(2,2,2-trifluoroacetamido)cyclopropyl)phenylsulfonamido)propan-2-ylamino)propyl)pyrrolidin-1-yl)-5-methyl-1-oxoheptan-4-yl)-N,3-dimethylbutanamide]
[1]
  EC50: 31.1 nM
